Marks after values point to notes of the source that are not given here.
Experiments:
[1] = tested on: Fadu (human pharyngeal squamous cell carcinoma); assay: In vitro inhibitory effect against human tumor cells (MTT); assay type: cell-based; conditions: 72 h, 3 days
Experimental: (§1) Cells were cultured with 5% CO2 at 37°C and saturated humidity until they reached a logarithmic growth phase (usually adherent cells were nearly fully confluent). After removing adherent cells by trypsin/EDTA digestion, the cells were collected for subsequent experiments.
(§2) The cells were inoculated into a 96-well cell culture plate (hereinafter referred to as the 96-well plate) based on the cell count shown in Table 2, cultured overnight to achieve cell adherence, and then, after different concentrations of the test compound were added, further cultured for a total of 3 days. Finally, the total cell protein in the assay wells was assayed by SRB, or the cell viability was assessed by MTT:
(§3) 2.2 Assaying cell viability by MTT: the modification is based on the method in the literature (J. Carmichael, W. DeGraff, A. Gazdar et al., Evaluation of a tetrazolium-based semiautomated colorimetric assay: assessment of chemosensitivity testing. Cancer Research. 1987, 47: 936-942). Specific method: For well-adherent cells: the medium was pipetted out, 100 µL of a basal medium containing 0.5 mg/mL MTT (medium free of fetal bovine serum (FBS) and other additives) was added to each well, and culture was continued for additional 3 h. The MTT-containing basal medium was pipetted out, and 100 µL of DMSO was added to each well to dissolve formazan, followed by assay at a wavelength of 490 nm.
(§4) For poorly-adherent cells: MTT solution was directly added to a concentration of 0.5 mg/mL, culture was continued for additional 3 h, and an equal volume of triple solvent was added to the system to dissolve formazan, followed by assay at a wavelength of 570 nm.
(§5) 2.3: 1-2 mg of β-glucuronidase was weighed, and dissolved in PBS to prepare 2 mg/mL stock solution. Prior to use, the stock solution was diluted with a complete medium to prepare 12.5 µg/mL enzyme working solution. For assay wells requiring the enzyme, 80 µL of the enzyme working solution was added, with the β-glucuronidase at a concentration of 1 µg/well; and for assay wells not requiring the enzyme, 80 µL of the complete medium was added.
(§6) 1-3 mg of the test compound was weighed, and dissolved in DMSO to prepare 20 mM stock solution. The stock solution was diluted in a 3-fold gradient with DMSO, then diluted 100-fold with RPMI1640 basal medium to obtain 10× working solutions, with a total of 8 concentrations. 20 µL of the 10× working solutions were add to the assay wells, with the final volume of each well of 200 µL, and with the DMSO at a concentration of 0.1%.
(§7) 2.4 Calculation of inhibitory activity of compound: the experiment includes a compound test group, a compound-free positive solvent control group (PC), and a negative solvent control group (NC) without cells and the compound. Inhibition rate = [1−(testvalue−NCmean)/(PCmean−NCmean)] × 100% [formula]
(§8) The mean and SD of the inhibition rate were obtained from replicate assay wells. A curve was plotted with the compound concentrations distributed in a logarithmic form as the abscissa and with the mean inhibition rates as the ordinate, and was fitted with a 4-parameter logistic equation. The compound concentration corresponding to 50% inhibition rate on the curve is the IC50 value. Table 2: Culture medium formulation and cell inoculation concentration for human tumor cell lines

[2] = tested on: MDA-MB-468 (human triple-negative breast cancer); assay: In vitro inhibitory effect against human tumor cells (SRB); assay type: cell-based; conditions: MDA-MB-468, 72 h, MDA-MB-468, SRB, 3 days
Experimental: as §1, §2
(§9) 2.1 Assaying total cell protein by SRB: the modification is based on the method in the literature (V. Vichai and K. Kirtikara. Sulforhodamine B colorimetric assay for cytotoxicity screening. Nature Protocols. 2006, 1: 1112-1116). Specific method: the culture medium was pipetted out from the wells, the cells were fixed with 10% trichloroacetic acid for more than 1 h, and trichloroacetic acid was removed; the cells were washed with H2O, and stained with 0.4% SRB for 15-30 min; after excess SRB was removed, the cells were washed with 1% acetic acid; 100 µl of 10 mM tris(trihydroxymethylaminomethane) was added to dissolve the protein-bound SRB, followed by assay at a wavelength of 570 nm.
as §5, §6, §7, §8

[3] = tested on: BxPC-3 (human pancreatic cancer in situ); assay: In vitro inhibitory effect against human tumor cells (MTT or SRB); assay type: cell-based; conditions: BXPC-3, 72 h, BxPC-3, test method printed MTT (head: SRB), 3 days
Experimental: as §1, §2, §9, §3, §4, §5, §6, §7, §8

[4] = tested on: HCT116 (human colorectal cancer); assay: In vitro inhibitory effect against human tumor cells (MTT); assay type: cell-based; conditions: HCT-116, 72 h, 3 days
Experimental: as §1, §2, §3, §4, §5, §6, §7, §8

[5] = tested on: NCI-H1975 (human non-small cell lung cancer); assay: as above; assay type: cell-based; conditions: NCI-H1975, 72 h, 3 days
Experimental: as §1, §2, §3, §4, §5, §6, §7, §8

[6] = tested on: SK-OV-3 (human ovarian cancer); assay: as above; assay type: cell-based; conditions: SK-OV-3, 72 h, SK-OV-3, MTT, 3 days
Experimental: as §1, §2, §3, §4, §5, §6, §7, §8

[7] = tested on: 22RV1 (human prostate cancer); assay: In vitro inhibitory effect against human tumor cells (SRB); assay type: cell-based; conditions: 22Rv1, 72 h, 22RV1, SRB, 3 days
Experimental: as §1, §2, §9, §5, §6, §7, §8

[8] = tested on: A375 (human malignant melanoma); assay: as above; assay type: cell-based; conditions: A-375, 72 h, 3 days
Experimental: as §1, §2, §9, §5, §6, §7, §8

[9] = tested on: HepG2 (human liver cancer cell); assay: as above; assay type: cell-based; conditions: HepG2, 72 h, 3 days
Experimental: as §1, §2, §9, §5, §6, §7, §8

[10] = tested on: human ovarian cancer SK-OV-3; assay: Biological Example 5: in vivo xenograft model of human ovarian cancer SK-OV-3; parameters: species or system Balb/c-nu nude mice; conditions: SK-OV-3 xenograft, nude mice; for Final body weight change (%) / Maximum body weight change (%) / Relative volume RTV (x±S.D.) / T/C (%) / Tumor inhibition rate (%) / Tumor weight (g, x±S.D.) / Body weight (g, x±S.D.) End / Body weight (g, x±S.D.) Start: 0.8 mg/kg i.v. qw×3
[11] = tested on: human non-small cell lung cancer NCI-H1975; assay: Biological Example 9: in vivo xenograft model of human non-small cell lung cancer NCI-H1975; parameters: species or system Balb/c-nu nude mice; conditions: nude mice
[12] = tested on: human non-small cell lung cancer NCI-H1975; assay: Biological Example 7: in vivo xenograft model of human non-small cell lung cancer NCI-H1975; parameters: species or system Balb/c-nu nude mice; conditions: nude mice
[13] = tested on: human non-small cell lung cancer NCI-H1975; assay: Biological Example 10: in vivo xenograft model of human non-small cell lung cancer NCI-H1975; parameters: species or system Balb/c-nu nude mice; conditions: nude mice
[14] = With addition of βGU (1 µg/well)

| SMILES | IC50 [1, 14] | IC50 ([1]; βGU-free) | IC50 [3, 14] | IC50 ([3]; βGU-free) | IC50 [4, 14] | IC50 ([4]; βGU-free) | IC50 [5, 14] | IC50 ([5]; βGU-free) | IC50 [6, 14] | IC50 ([6]; βGU-free) | IC50 [7, 14] | IC50 ([7]; βGU-free) | IC50 [8, 14] | IC50 ([8]; βGU-free) | IC50 [9, 14] | IC50 ([9]; βGU-free) | Final body weight change (%) [10] | Maximum body weight change (%) [10] | Relative volume RTV (x±S.D.) [10] | T/C (%) [10] | also measured |
| --- | --- | --- | --- | --- | --- | --- | --- | --- | --- | --- | --- | --- | --- | --- | --- | --- | --- | --- | --- | --- | --- |
| CC[C@H](C)[C@@H]([C@@H](CC(=O)N1CCC[C@H]1[C@H](OC)[C@@H](C)C(=O)N[C@H](C)[C@@H](O)c1ccccc1)OC)N(C)C(=O)[C@@H](NC(=O)[C@H](C(C)C)N(C)Cc1ccc(O[C@@H]2O[C@H](C(=O)O)[C@@H](O)[C@H](O)[C@H]2O)cc1OCc1cn(CCCCCC(=O)Nc2ccc(-c3ccc(/N=N/c4ccc5c(S(=O)(=O)O)cc(S(=O)(=O)O)c(N)c5c4O)c(C)c3)cc2C)nn1)C(C)C [Example compound 3] | 7.8 nM | 159 nM | 9.7 nM | 106 nM |  |  |  |  |  |  |  |  |  |  |  |  |  |  |  |  | IC50 [2, 14]: 0.77 nM; IC50 ([2]; βGU-free): 50 nM |
| CC[C@H](C)[C@@H]([C@@H](CC(=O)N1CCC[C@H]1[C@H](OC)[C@@H](C)C(=O)N[C@H](C)[C@@H](O)c1ccccc1)OC)N(C)C(=O)[C@@H](NC(=O)[C@H](C(C)C)[N+](C)(CC)Cc1ccc(O[C@@H]2O[C@H](C(=O)[O-])[C@@H](O)[C@H](O)[C@H]2O)cc1OCc1cn(CCOCCC(=O)Nc2ccc(-c3ccc(/N=N/c4ccc5c(S(=O)(=O)[O-])cc(S(=O)(=O)[O-])c(N)c5c4O)c(C)c3)cc2C)nn1)C(C)C.[Na+].[Na+] (stereo partly shown) [Example compound 8] | 0.79 nM | 19 nM | 0.54 nM | 21 nM | 2.1 nM | 51 nM | 3.4 nM | 72 nM | 2.6 nM | 61 nM | 3 nM | 63 nM | 2.4 nM | 43 nM | 4 nM | 86 nM | 4.6% | 4.6, d21% | 0.08±0.02 | 0.7% | Tumor inhibition rate (%) [10]: 99.7%; Tumor weight (g, x±S.D.) [10]: 0.005 ± 0.003 g; Animal death ([10]; 0.8 mg/kg i.v. qw×3, group G5, stated to be independent of drug administration (biting and fighting injury)): One animal in group G5 died on day 18; Body weight (g, x±S.D.) End [10]: 24.1 ± 1.6 g; Body weight (g, x±S.D.) Start [10]: 22.9 ± 1.6 g; Final body weight change (%) ([11]; 0.8 mg/kg i.v. qw×3): 4%; Maximum body weight change (%) ([11]; 0.8 mg/kg i.v. qw×3): 4.3, d17%; Relative volume RTV (x±S.D.) ([11]; 0.8 mg/kg i.v. qw×3): 0.19±0.27; T/C (%) ([11]; 0.8 mg/kg i.v. qw×3): 2.5%; Tumor inhibition rate (%) ([11]; 0.8 mg/kg i.v. qw×3): 98.3%; Tumor weight (g, x±S.D.) ([11]; 0.8 mg/kg i.v. qw×3): 0.022±0.038* * g; Body weight (g, x±S.D.) End 24d ([11]; 0.8 mg/kg i.v. qw×3, End 24d): 26.3 ± 1.5 g; Body weight (g, x±S.D.) Start ([11]; 0.8 mg/kg i.v. qw×3, Start): 25.3 ± 1.1 g |
| CC[C@H](C)[C@@H]([C@@H](CC(=O)N1CCC[C@H]1[C@H](OC)[C@@H](C)C(=O)N[C@H](C)[C@@H](O)c1ccccc1)OC)N(C)C(=O)[C@@H](NC(=O)[C@H](C(C)C)[N+](C)(CC)Cc1ccc(O[C@@H]2O[C@H](C(=O)[O-])[C@@H](O)[C@H](O)[C@H]2O)cc1OCc1cn(CCCCCC(=O)Nc2ccc(-c3ccc(/N=N/c4ccc5c(S(=O)(=O)[O-])cc(S(=O)(=O)[O-])c(N)c5c4O)c(C)c3)cc2C)nn1)C(C)C.[Na+].[Na+] (stereo partly shown) [Example compound 12] | 0.21 nM | 36 nM | 0.53 nM | 28 nM | 1.6 nM | 84 nM | 1.2 nM | 74 nM | 1.1 nM | 37 nM | 2.5 nM | 77 nM | 1 nM | 50 nM | 3 nM | 106 nM | 4.4% | 4.4, d21% | 0.07±0.04 | 0.6% | Tumor inhibition rate (%) [10]: 99.7%; Tumor weight (g, x±S.D.) [10]: 0.005 ± 0.001 g; Body weight (g, x±S.D.) End [10]: 25.1 ± 1.4 g; Body weight (g, x±S.D.) Start [10]: 24.1 ± 1.2 g; Final body weight change (%) ([12]; 0.8 mg/kg i.v. qw×3): 5.8%; Maximum body weight change (%) ([12]; 0.8 mg/kg i.v. qw×3): 5.8, d21%; Relative volume RTV (x±S.D.) ([12]; 0.8 mg/kg i.v. qw×3): 0.46±0.35; T/C (%) ([12]; 0.8 mg/kg i.v. qw×3): 3.2%; Tumor inhibition rate (%) ([12]; 0.8 mg/kg i.v. qw×3): 97.8%; Tumor weight (g, x±S.D.) ([12]; 0.8 mg/kg i.v. qw×3): 0.039 ± 0.039 g; Body weight (g, x±S.D.) End ([12]; 0.8 mg/kg i.v. qw×3, End): 25.6 ± 2.4 g; Body weight (g, x±S.D.) Start ([12]; 0.8 mg/kg i.v. qw×3, Start): 24.1 ± 1.6 g; Final body weight change (%) ([13]; 0.4 mg/kg i.v. qw×2): 5.7%; Maximum body weight change (%) ([13]; 0.4 mg/kg i.v. qw×2): 5.7, d28%; Relative volume RTV (x±S.D.) ([13]; 0.4 mg/kg i.v. qw×2): 0.44±0.06; T/C (%) ([13]; 0.4 mg/kg i.v. qw×2): 8.8%; Tumor inhibition rate (%) ([13]; 0.4 mg/kg i.v. qw×2): 92.1%; Tumor weight (g, x±S.D.) ([13]; 0.4 mg/kg i.v. qw×2): 0.086 ± 0.009 g; Body weight (g, x±S.D.) End 24d ([13]; 0.4 mg/kg i.v. qw×2, End 24d): 23.1 ± 0.7 g; Body weight (g, x±S.D.) Start ([13]; 0.4 mg/kg i.v. qw×2, Start): 21.8 ± 0.6 g |
